# System: clinical isolate of M.tuberculosis resistant to isoniazid
compound,measurement,value
O=C(NCc1ccco1)N1CCN(Cc2ccc(Cl)s2)CC1 [TCMDC-143653],MIC against clinical isolate resistant to isoniazid,1.6 µM
